pIC50: −log10 of the molar value.
Target: T1, Nav1.7 (or SCN9A) channel; HEK cells stably transfected with hSCN9A (Homo sapiens, UniProt Q15858)
T1 construct: expressed in transfected cells
Assay: Nav1.7 block, PatchXpress 7000 automated whole-cell voltage clamp, estimated IC50 (EIC50)
Type: cell-based
Details: PatchXpress platform; hSCN9A HEK cells held at V1/2 of inactivation; estimated IC50

T1 sequence (Q15858 whole entry): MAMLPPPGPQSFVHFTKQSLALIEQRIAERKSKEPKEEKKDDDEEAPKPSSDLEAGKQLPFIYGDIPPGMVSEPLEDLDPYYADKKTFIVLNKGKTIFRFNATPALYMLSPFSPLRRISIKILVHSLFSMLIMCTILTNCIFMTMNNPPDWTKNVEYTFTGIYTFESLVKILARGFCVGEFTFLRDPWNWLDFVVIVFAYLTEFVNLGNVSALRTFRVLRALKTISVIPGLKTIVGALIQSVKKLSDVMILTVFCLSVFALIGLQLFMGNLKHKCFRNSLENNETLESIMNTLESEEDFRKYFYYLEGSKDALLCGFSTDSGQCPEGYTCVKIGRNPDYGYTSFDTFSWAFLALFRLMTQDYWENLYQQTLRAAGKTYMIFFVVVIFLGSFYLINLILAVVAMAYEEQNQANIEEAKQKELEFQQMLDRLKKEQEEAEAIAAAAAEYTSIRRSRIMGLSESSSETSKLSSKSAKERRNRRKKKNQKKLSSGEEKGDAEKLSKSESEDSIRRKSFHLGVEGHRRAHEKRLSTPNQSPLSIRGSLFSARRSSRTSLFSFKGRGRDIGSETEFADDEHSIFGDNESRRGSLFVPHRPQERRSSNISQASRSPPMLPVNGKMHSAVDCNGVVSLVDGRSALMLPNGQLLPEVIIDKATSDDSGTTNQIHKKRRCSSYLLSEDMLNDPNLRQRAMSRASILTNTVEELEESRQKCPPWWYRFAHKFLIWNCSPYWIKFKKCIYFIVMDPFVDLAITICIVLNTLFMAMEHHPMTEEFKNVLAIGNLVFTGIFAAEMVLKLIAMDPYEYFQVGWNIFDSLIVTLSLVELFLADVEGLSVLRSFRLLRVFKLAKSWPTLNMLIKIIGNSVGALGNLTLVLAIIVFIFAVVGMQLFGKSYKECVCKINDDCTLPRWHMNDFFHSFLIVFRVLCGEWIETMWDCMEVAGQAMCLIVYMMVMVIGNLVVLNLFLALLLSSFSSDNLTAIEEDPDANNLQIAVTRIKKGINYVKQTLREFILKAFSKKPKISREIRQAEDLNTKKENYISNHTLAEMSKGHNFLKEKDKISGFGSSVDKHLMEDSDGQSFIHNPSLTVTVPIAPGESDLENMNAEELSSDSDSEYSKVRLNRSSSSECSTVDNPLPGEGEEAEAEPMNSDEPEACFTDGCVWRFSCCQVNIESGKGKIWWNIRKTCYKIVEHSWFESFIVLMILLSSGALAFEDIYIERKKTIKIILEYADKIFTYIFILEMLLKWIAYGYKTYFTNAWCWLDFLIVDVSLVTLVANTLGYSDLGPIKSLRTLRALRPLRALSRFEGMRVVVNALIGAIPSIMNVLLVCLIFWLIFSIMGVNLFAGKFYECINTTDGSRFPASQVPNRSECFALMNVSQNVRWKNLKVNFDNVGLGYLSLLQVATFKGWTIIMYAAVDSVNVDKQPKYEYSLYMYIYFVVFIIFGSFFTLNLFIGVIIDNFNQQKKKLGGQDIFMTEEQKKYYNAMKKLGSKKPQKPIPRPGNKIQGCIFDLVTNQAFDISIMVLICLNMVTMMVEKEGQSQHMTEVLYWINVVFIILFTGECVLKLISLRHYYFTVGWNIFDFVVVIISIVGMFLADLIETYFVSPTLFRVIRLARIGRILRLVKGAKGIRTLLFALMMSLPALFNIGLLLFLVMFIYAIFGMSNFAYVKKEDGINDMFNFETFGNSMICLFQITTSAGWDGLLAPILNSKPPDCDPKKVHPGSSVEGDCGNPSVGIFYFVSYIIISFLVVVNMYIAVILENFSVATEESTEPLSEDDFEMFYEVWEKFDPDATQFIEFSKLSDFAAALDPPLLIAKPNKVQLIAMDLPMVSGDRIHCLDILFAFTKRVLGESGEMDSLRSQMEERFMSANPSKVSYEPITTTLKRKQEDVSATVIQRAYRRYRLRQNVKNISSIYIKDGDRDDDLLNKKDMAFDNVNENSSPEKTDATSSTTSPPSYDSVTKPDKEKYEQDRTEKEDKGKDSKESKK

Row | SMILES | pIC50 | IC50
1 | Cn1nccc1-c1ccccc1Oc1ccc(S(=O)(=O)Nc2ncns2)cc1C#N [Example 70, 3-cyano-4-[2-(1-methyl-1H-pyrazol-5-yl)phenoxy]-N-1,2,4-thiadiazol-5-ylbenzenesulfonamide] | 6.96 | 
2 | CCOC(=O)Cn1nccc1-c1cc(F)ccc1Oc1ccc(S(=O)(=O)Nc2nccs2)cc1F [Example 221, ethyl 2-(5-(5-fluoro-2-(2-fluoro-4-(N-thiazol-2-ylsulfamoyl)phenoxy)phenyl)-1H-pyrazol-1-yl)acetate] | 6.35 | 
3 | Cc1n[nH]c(C)c1-c1ccccc1Oc1ccc(S(=O)(=O)Nc2ncns2)cc1C#N [Example 62, 3-cyano-4-[2-(3,5-dimethyl-1H-pyrazol-4-yl)phenoxy]-N-1,2,4-thiadiazol-5-ylbenzenesulfonamide] | 5.40 | 
4 | N#Cc1cc(S(=O)(=O)Nc2nccs2)ccc1Oc1ccc(Cl)cc1-c1ccccc1 [Example 156, 4-[(5-chlorobiphenyl-2-yl)oxy]-3-cyano-N-1,3-thiazol-2-ylbenzenesulfonamide] | 7.52 | 
5 | CC(C)Oc1ccc(-c2cc(Cl)ccc2Oc2ccc(S(=O)(=O)Nc3nccs3)cc2C#N)cc1 [Example 155, 4-[(5-chloro-4′-isopropoxybiphenyl-2-yl)oxy]-3-cyano-N-1,3-thiazol-2-ylbenzenesulfonamide] | 6.07 | 
6 | O=S(=O)(Nc1ncns1)c1ccc(Oc2ccccc2-c2ccccc2)cc1Cl [Example 263, 4-(biphenyl-2-yloxy)-2-chloro-N-1,2,4-thiadiazol-5-ylbenzenesulfonamide] | 5.84 | 
7 | O=S(=O)(Nc1ncns1)c1ccc(Oc2ccc(-c3ccccc3)cc2)c(Cl)c1 [Example 149, 4-(biphenyl-4-yloxy)-3-chloro-N-1,2,4-thiadiazol-5-ylbenzenesulfonamide] | 6.04 | 
8 | Cn1ncc(F)c1-c1cc(Cl)ccc1Oc1ccc(S(=O)(=O)Nc2nccs2)cc1C#N [Example 196, 4-[4-Chloro-2-(4-fluoro-2-methyl-2H-pyrazol-3-yl)-phenoxy]-3-cyano-N-thiazol-2-yl-benzenesulfonamide] | 7.52 | 
9 | CN(C)C(=O)Cn1nccc1-c1cc(F)ccc1Oc1ccc(S(=O)(=O)Nc2nccs2)cc1F [Example 239, 2-(5-(5-fluoro-2-(2-fluoro-4-(N-thiazol-2-ylsulfamoyl)phenoxy)phenyl)-1H-pyrazol-1-yl)-N,N-dimethylacetamide] | 5.72 | 
10 | Cn1nccc1-c1cc(Cl)cc(Cl)c1Oc1ccc(S(=O)(=O)Nc2ncns2)cc1C#N [Example 71, 3-cyano-4-[2,4-dichloro-6-(1-methyl-1H-pyrazol-5-yl)phenoxy]-N-1,2,4-thiadiazol-5-ylbenzenesulfonamide] | 4.90 | 
11 | O=S(=O)(Nc1nccs1)c1ccc(Oc2cnn(Cc3ccc(Cl)cc3)c2)cc1F [Example 206, 4-(1-(4-chlorobenzyl)-1H-pyrazol-4-yloxy)-2-fluoro-N-(thiazol-2-yl)benzenesulfonamide] | 5.92 | 
12 | O=S(=O)(Nc1nccs1)c1ccc(Oc2ccccc2-c2ccccc2)c(F)c1 [Example 242, 4-(biphenyl-2-yloxy)-3-fluoro-N-thiazol-2-yl-benzenesulfonamide] | 6.92 | 
13 | N#Cc1cc(S(=O)(=O)Nc2cnoc2)ccc1Oc1ccccc1-c1ccccc1 [Example 108, 4-(biphenyl-2-yloxy)-3-cyano-N-isoxazol-4-ylbenzenesulfonamide] |  | >10000 nM

Same assay, conditions: estimated IC50; hSCN9A HEK cells, PatchXpress platform; Examples 283-814

Row | SMILES | IC50 | pIC50
14 | CCn1nc(-c2ccc(Oc3ccc(S(=O)(=O)Nc4nccs4)cc3C#N)c(F)c2)cc1C(F)(F)F [Example 324, 3-cyano-4-{4-[1-ethyl-5-(trifluoromethyl)-1H-pyrazol-3-yl]-2-fluorophenoxy}-N-1,3-thiazol-2-ylbenzenesulfonamide] | >1000 nM | 
15 | N#Cc1cc(S(=O)(=O)Nc2nccs2)ccc1Oc1ccc(C(F)(F)F)cc1-c1cn[nH]c1 [Example 460, 4-(2-(1H-pyrazol-4-yl)-4-(trifluoromethyl)phenoxy)-3-cyano-N-(thiazol-2-yl)benzenesulfonamide] |  | 7.82
16 | Cn1nccc1-c1cc(Cl)ccc1Oc1ccc(S(=O)(=O)Nc2cscn2)c(F)c1 [Example 681, 4-[4-chloro-2-(1-methyl-1H-pyrazol-5-yl)phenoxy]-2-fluoro-N-1,3-thiazol-4-ylbenzenesulfonamide] |  | 5.92
17 | Cn1nccc1-c1cc(Cl)ccc1Oc1cc(F)c(S(=O)(=O)Nc2cscn2)cc1F [Example 606, 4-[4-chloro-2-(1-methyl-1H-pyrazol-5-yl)phenoxy]-2,5-difluoro-N-1,3-thiazol-4-ylbenzenesulfonamide] |  | 6.89
18 | Cn1nccc1-c1ccccc1Oc1ccc(S(=O)(=O)Nc2cscn2)cc1C#N [Example 400, 3-cyano-4-[2-(1-methyl-1H-pyrazol-5-yl)phenoxy]-N-1,3-thiazol-4-ylbenzenesulfonamide] |  | 5.92
19 | Cc1nn(C)c(C)c1Cc1ccc(Oc2ccc(S(=O)(=O)Nc3ccc(F)cn3)cc2C#N)cc1 [Example 565, 3-cyano-N-(5-fluoropyridin-2-yl)-4-{4-[(1,3,5-trimethyl-1H-pyrazol-4-yl)methyl]phenoxy}benzenesulfonamide] |  | 4.27
20 | N#Cc1cc(S(=O)(=O)Nc2nccs2)ccc1Oc1cccc(-c2ccccc2)c1 [Example 778, 4-(biphenyl-3-yloxy)-3-cyano-N-1,3-thiazol-2-ylbenzenesulfonamide] |  | 6.33
21 | Cc1cnc(NS(=O)(=O)c2ccc(Oc3ccccc3-c3ccccc3)c(C#N)c2)nc1 [Example 429, 4-(biphenyl-2-yloxy)-3-cyano-N-(5-methylpyrimidin-2-yl)benzenesulfonamide] | >10000 nM | 
22 | Nc1cccc(-c2cc(Cl)ccc2Oc2cc(F)c(S(=O)(=O)Nc3ncns3)cc2Cl)n1 [Example 403, 4-[2-(6-aminopyridin-2-yl)-4-chlorophenoxy]-5-chloro-2-fluoro-N-1,2,4-thiadiazol-5-ylbenzenesulfonamide] |  | 8.35
23 | N#Cc1cc(S(=O)(=O)Nc2ncns2)ccc1Oc1ccc(I)cc1-c1ccn[nH]1 [Example 506, 3-cyano-4-[4-iodo-2-(1H-pyrazol-5-yl)phenoxy]-N-1,2,4-thiadiazol-5-ylbenzenesulfonamide] |  | 7.96
24 | N#Cc1cc(S(=O)(=O)Nc2ncc(Cl)s2)ccc1Oc1ccc(F)cc1-c1ccn[nH]1 [Example 589, N-(5-Chloro-1,3-thiazol-2-yl)-3-cyano-4-[4-fluoro-2-(1H-pyrazol-5-yl)phenoxy]benzenesulfonamide] |  | 6.29
25 | Cc1scnc1NS(=O)(=O)c1cc(Cl)c(Oc2ccc(F)cc2-c2ccnn2C)cc1F [Example 630, 5-chloro-2-fluoro-4-(4-fluoro-2-(1-methyl-1H-pyrazol-5-yl)phenoxy)-N-(5-methylthiazol-4-yl)benzenesulfonamide] | >1000 nM | 
26 | N#Cc1cc(S(=O)(=O)Nc2ccc(F)cn2)ccc1Oc1ccc(Cl)cc1-c1cn[nH]c1 [Example 314, 4-[4-chloro-2-(1H-pyrazol-4-yl)phenoxy]-3-cyano-N-(5-fluoropyridin-2-yl)benzenesulfonamide] |  | 6.14
27 | Cn1ncnc1-c1cc(Cl)ccc1Oc1ccc(S(=O)(=O)Nc2nccs2)cc1C#N [Example 326, 4-[4-chloro-2-(1-methyl-1H-1,2,4-triazol-5-yl)phenoxy]-3-cyano-N-1,3-thiazol-2-ylbenzenesulfonamide] |  | 5.68
28 | Nc1cc(-c2cc(Cl)ccc2Oc2cc(F)c(S(=O)(=O)Nc3ncns3)cc2Cl)ccn1 [Example 732, 4-[2-(2-aminopyridin-4-yl)-4-chlorophenoxy]-5-chloro-2-fluoro-N-1,2,4-thiadiazol-5-ylbenzenesulfonamide] |  | 8.46
29 | Nc1cc(-c2cc(OC(F)(F)F)ccc2Oc2cc(F)c(S(=O)(=O)Nc3ncns3)cc2Cl)ccn1 [Example 553, 4-[2-(2-aminopyridin-4-yl)-4-(trifluoromethoxy)phenoxy]-5-chloro-2-fluoro-N-1,2,4-thiadiazol-5-ylbenzenesulfonamide] |  | 8.77
30 | N#Cc1cc(S(=O)(=O)Nc2ncc(Cl)s2)ccc1Oc1ccc(Cl)cc1C1CCNCC1 [Example 593, 4-(4-Chloro-2-piperidin-4-ylphenoxy)-N-(5-chloro-1,3-thiazol-2-yl)-3-cyanobenzenesulfonamide] |  | 7.46
31 | Cn1nccc1-c1cc(Cl)ccc1Oc1ccc(S(=O)(=O)Nc2ccc(C(F)(F)F)cn2)cc1C#N [Example 772, 4-[4-chloro-2-(1-methyl-1H-pyrazol-5-yl)phenoxy]-3-cyano-N-[5-(trifluoromethyl)pyridin-2-yl]benzenesulfonamide] |  | 4.51
32 | Cn1nc(C(F)(F)F)cc1-c1ccc(Oc2ccc(S(=O)(=O)Nc3ncc(F)s3)cc2C#N)c(Cl)c1 [Example 720, 4-{2-chloro-4-[1-methyl-3-(trifluoromethyl)-1H-pyrazol-5-yl]phenoxy}-3-cyano-N-(5-fluoro-1,3-thiazol-2-yl)benzenesulfonamide] |  | 7.25
33 | N#Cc1cc(S(=O)(=O)Nc2cscn2)ccc1Oc1ccc(C(F)(F)F)cc1-c1cn[nH]c1 [Example 598, 3-cyano-4-[2-(1H-pyrazol-4-yl)-4-(trifluoromethyl)phenoxy]-N-1,3-thiazol-4-ylbenzenesulfonamide] |  | 6.64

Same assay, conditions: estimated IC50; hSCN9A HEK cells, PatchXpress platform; Examples 815-1040

Row | SMILES | pIC50
34 | Nc1[nH]ncc1-c1cc(Cl)ccc1Oc1ccc(S(=O)(=O)Nc2cscn2)cc1Cl [Example 912, 4-[2-(5-amino-1H-pyrazol-4-yl)-4-chlorophenoxy]-3-chloro-N-1,3-thiazol-4-ylbenzenesulfonamide] | 7.85
35 | N#Cc1cc(S(=O)(=O)Nc2ccc(F)cn2)ccc1Oc1ccc(F)cc1C1CC1 [Example 1004, 3-cyano-4-(2-cyclopropyl-4-fluorophenoxy)-N-(5-fluoropyridin-2-yl)benzenesulfonamide] | 5.15
36 | Cc1cc(S(=O)(=O)Nc2ncns2)c(F)cc1Oc1ccc(C(F)(F)F)cc1-c1ccnnc1 [Example 978, 2-fluoro-5-methyl-4-[2-pyridazin-4-yl-4-(trifluoromethyl)phenoxy]-N-1,2,4-thiadiazol-5-ylbenzenesulfonamide] | 8.34
